The text below walks through data of patent US5624923A, “Tricyclic diazepine vasopressin antagonists and oxytocin antagonists” (priority 1995, dated 1997).

Where two headings read alike, the source gives them in different places.

Experiment [1] has as its target T1, Rat Hepatic V1 Receptors (Rattus norvegicus, UniProt P30560).
T1 construct: Rat liver plasma membranes expressing the vasopressin V1 receptor subtypes; from tissue; host or cells: rat liver plasma membranes
Kind of experiment: Binding Assay to Rat Hepatic V1 Receptors. The settings on record: for inhibition at 10 µM: 2 h, rat.

Experiment [2] concerns Vasopressin V2. The experiment is described as follows: Vasopressin V2 Antagonist Activity in Conscious Hydrated Rats. The settings on record: 10 mg/kg orally, AVP 0.4 μg/kg i.p. Type of experiment: in vivo, rat. In short, it runs like this: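 Four-hour urine output, osmolality and electrolytes (Na+, K+, Cl−) recorded in water-loaded rats (30 mL/kg deionized water orally) given AVP i.p. at 0.4 μg/kg. Test compounds were given orally at 0.1–100 mg/kg 1 h before AVP; 2–4 rats per compound.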

In experiment [3] the target is T2, oxytocin receptors (Rattus norvegicus, UniProt P70536).
T2 construct: The uteri are dissected out, cleaned of fat and connective tissues; from tissue; host or cells: uterus of DES-treated female Sprague-Dawley rats
T2 sequence (P70536 1-388): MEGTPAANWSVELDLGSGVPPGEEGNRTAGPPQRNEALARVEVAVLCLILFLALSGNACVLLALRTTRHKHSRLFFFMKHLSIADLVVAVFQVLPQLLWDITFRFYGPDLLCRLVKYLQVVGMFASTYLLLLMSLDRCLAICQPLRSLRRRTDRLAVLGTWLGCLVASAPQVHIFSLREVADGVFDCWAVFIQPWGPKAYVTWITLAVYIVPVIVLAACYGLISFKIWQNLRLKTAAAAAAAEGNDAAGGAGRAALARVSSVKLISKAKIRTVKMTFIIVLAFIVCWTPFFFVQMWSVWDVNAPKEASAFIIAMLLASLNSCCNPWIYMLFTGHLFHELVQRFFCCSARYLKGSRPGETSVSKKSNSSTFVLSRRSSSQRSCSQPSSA
Kind of experiment: Oxytocin Receptor Binding. The settings on record: for IC50: 1.0 nM [3H]oxytocin; for inhibition at 10 µM: [3H]oxytocin. In short, it runs like this: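 Membranes from uteri of DES-primed (0.3 mg/kg i.m., 18 h) female Sprague-Dawley rats. Competition with 1.0 nM [3H]oxytocin in 50 mM Tris.HCl pH 7.4, 5 mM MgCl2 with protease inhibitors, 60 min at 22 °C, filtration read-out. Non-specific binding with 1.0 uM unlabeled OT; IC50 calculated.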

Experiment [4] addresses T3, Rat Kidney Medullary V2 Receptors (Rattus norvegicus, UniProt Q00788).
T3 construct: Medullary tissues from rat kidneys are dissected out; from tissue; host or cells: rat kidney medulla membranes
Kind of experiment: Binding Assay to Rat Kidney Medullary V2 Receptors. To be noted: for IC50: rat kidney medulla membranes, read-out: V2 IC50. The method in brief:
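Membranes were prepared from rat kidney medulla and stored in 50.0 mM Tris-HCl pH 7.4 with 0.2% BSA and 0.1 mM PMSF. Radioligand competition ran 120 min at bench temperature, with 1.0 μM unlabeled ligand defining nonspecific binding. Compounds were added in 50% DMSO; filtration, tritium scintillation counting, IC50 from competition analysis.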

Experiment [5] has as its target T4, Human V2 Vasopressin Receptor (Homo sapiens, UniProt P30518).
T4 construct: expressed in transfected cells; host or cells: mouse fibroblast cell line LV-2
Kind of experiment: Binding to Membranes of Mouse Fibroblast Cell Line (LV-2) Transfected with the cDNA Expressing the Human V2 Vasopressin Receptor. As for the experimental part: Binding to Membranes of Mouse Fibroblast Cell Line (LV-2) Transfected with the cDNA Expressing the Human V2 Vasopressin Receptor
Flasks of 175 ml capacity, containing attached cells grown to confluence, are cleared of culture medium by aspiration. The flasks containing the attached cells are rinsed with 2×5 ml of phosphate buffered saline (PBS) and the liquid aspirated off each time. Finally, 5 ml of an enzyme free dissociation Hank's based solution (Specialty Media, Inc., Lafayette, N.J.) is added and the flasks are left undisturbed for 2 min. The content of all flasks is. poured into a centrifuge tube and the cells pelleted at 300× g for 15 min. The Hank's based solution is aspirated off and the cells homogenized with a polytron at setting #6 for 10 sec in 10.0 mM Tris.HCl buffer, pH 7.4 containing 0.25M sucrose and 1.0 mM EDTA. The homogenate is centrifuged at 1500× g for 10 min to remove ghost membranes. The supernatant fluid is centrifuged at 100,000× g for 60 min. to pellet the receptor protein. Upon completion, the pellet is resuspended in a small volume of 50.0 mM Tris. HCl buffer, pH 7.4. The protein content is determined by the Lowry method and the receptor membranes are suspended in 50.0 mM Tris.HCl buffer containing 0.1 mM phenylmethylsulfonylfluoride (PMSF) and 0.2% bovine serum albumin (BSA) to give 2.5 mg receptor protein per ml of suspension.
Arginine^8, vasopressin (S.A. 75.0 Ci/mmole) at 0.8 nM and the reaction initiated by the addition of 80.0 μl of tissue membranes (200.0 μg tissue protein). The plates are left undisturbed on the bench top for 120 min to reach equilibrium. Non specific binding is assessed in the presence of 1.0 μM of unlabeled ligand, added in 20 μl volume. For test compounds, these are solubilized in 50% dimethylsulfoxide (DMSO) and added in 20.0 μl volume to a final incubation volume of 200 μl. Upon completion of binding, the content of each well is filtered off, using a Brandel® cell Harvester (Gaithersburg, Md.). The radioactivity trapped on the filter disk by the ligand-receptor complex is assessed by liquid scintillation counting in a Packard LS Counter, with an efficiency of 65% for tritium. The data are analyzed for IC50 values by the LUNDON-2 program for competition (LUNDON SOFTWARE, Ohio).

Experiment [6] has as its target T5, V1 Receptor Subtype in Human Platelet (Homo sapiens, UniProt P37288).
T5 construct: tissue Hudson Valley Blood Services, Westchester Medical Center, Valhalla, N.Y; host or cells: human platelets (frozen platelet rich plasma)
Kind of experiment: Binding to Vasopressin V1 receptor subtype in Human Platelet Membranes. To be noted: for IC50: human platelet membranes. As for the experimental part:
Radioligand Binding Experiments with Human Platelet Membranes (a) Platelet Membrane Preparation: Frozen platelet rich plasma (PRP), (Platelet Source: Hudson Valley Blood Services, Westchester Medical Center, Valhalla, N.Y.) are thawed to room temperature. The tubes containing the PRP are centrifuged at 16,000×g for 10 min. at 4° C. and the supernatant fluid discarded. […] The suspension is recentrifuged at 16,000× g for 10 min. This washing step is repeated one more time. The wash discarded and the lysed pellets homogenized in low ionic strength buffer of Tris.HCl, 5.0 mM, pH 7.5 containing 5.0 mM EDTA. The homogenate is centrifuged at 39,000× g for 10 min. The resulting pellet is resuspended in Tris. […] The final pellet is resuspended in 50.0 mM Tris. HCl buffer pH 7.4 containing 120 mM NaCl and 5.0 mM KCl to give 1.0-2.0 mg protein per ml of suspension. […] Platelet Membranes […] Then add 20 μl of [^3 H]Ligand (Manning or […] Vasopressin), to give final concentrations ranging from 0.01 to 10.0 nM. Initiate the binding by adding 80.0 μl of platelet suspension (approx. 100 μg protein). Mix all reagents by pipetting the mixture up and down a few times. Non specific binding is measured in the presence of 1.0 μM of unlabeled ligand (Manning or […] Vasopressin). Let the mixture stand undisturbed at room temperature for ninety (90) min. Upon this time, rapidly filter off the incubate under vacuum suction over GF/B filters, using a Brandel Harvester. Determine the radioactivity caught on the filter disks by the addition of liquid scintillant and counting in a liquid scintillator.

Where [7] appears, read: rat liver membranes, read-out: V1 IC50.
[8] abbreviates: LV-2 cell membranes, human V2, read-out: V2 IC50 (**).

T5 sequence (P37288 whole entry): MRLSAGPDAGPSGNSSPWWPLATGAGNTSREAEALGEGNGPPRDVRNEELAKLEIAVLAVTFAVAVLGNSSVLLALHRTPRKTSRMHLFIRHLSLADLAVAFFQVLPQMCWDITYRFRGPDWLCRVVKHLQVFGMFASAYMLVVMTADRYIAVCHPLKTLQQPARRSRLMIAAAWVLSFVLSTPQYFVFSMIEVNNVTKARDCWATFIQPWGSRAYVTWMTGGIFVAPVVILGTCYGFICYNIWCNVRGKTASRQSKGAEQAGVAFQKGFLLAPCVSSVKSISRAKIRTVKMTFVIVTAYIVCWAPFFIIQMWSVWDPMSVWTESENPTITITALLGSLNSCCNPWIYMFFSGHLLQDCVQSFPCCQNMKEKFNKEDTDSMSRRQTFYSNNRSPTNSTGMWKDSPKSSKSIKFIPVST
T4 sequence (P30518 whole entry): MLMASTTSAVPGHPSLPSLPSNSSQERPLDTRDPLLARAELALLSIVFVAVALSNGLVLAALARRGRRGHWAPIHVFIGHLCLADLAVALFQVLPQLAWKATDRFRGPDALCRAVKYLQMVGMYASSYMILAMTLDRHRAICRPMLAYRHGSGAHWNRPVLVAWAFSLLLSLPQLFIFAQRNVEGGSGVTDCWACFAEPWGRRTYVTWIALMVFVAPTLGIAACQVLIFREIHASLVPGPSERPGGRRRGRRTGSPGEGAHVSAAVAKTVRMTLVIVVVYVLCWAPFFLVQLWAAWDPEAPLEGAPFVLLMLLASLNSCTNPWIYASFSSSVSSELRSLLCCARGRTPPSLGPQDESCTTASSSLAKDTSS
T1 sequence (P30560 whole entry): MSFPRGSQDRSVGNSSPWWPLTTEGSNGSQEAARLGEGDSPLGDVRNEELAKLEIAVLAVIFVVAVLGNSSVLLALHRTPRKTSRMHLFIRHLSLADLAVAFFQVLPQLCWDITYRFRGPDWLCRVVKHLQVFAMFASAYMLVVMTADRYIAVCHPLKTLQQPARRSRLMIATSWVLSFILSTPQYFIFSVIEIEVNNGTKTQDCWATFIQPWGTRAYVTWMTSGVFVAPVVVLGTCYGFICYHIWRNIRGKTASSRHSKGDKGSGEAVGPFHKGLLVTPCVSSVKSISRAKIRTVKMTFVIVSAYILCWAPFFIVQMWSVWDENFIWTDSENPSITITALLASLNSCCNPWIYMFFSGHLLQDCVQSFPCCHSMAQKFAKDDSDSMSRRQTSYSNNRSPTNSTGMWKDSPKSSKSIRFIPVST
T3 sequence (Q00788 whole entry): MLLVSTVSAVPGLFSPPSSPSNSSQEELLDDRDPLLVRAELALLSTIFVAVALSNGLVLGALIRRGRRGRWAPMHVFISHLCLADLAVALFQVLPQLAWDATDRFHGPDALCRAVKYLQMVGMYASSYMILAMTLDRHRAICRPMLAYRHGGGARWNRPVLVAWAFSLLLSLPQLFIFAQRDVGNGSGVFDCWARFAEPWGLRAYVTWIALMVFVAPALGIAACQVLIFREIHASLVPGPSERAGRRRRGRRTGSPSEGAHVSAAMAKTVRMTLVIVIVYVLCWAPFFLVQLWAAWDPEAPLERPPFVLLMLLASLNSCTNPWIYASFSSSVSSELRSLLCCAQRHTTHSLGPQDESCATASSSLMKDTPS

The term IC50 denotes the concentration needed to halve the response being measured. By inhibition is commonly meant the percentage by which the read-out fell short of the control. A high value points to a response far below the control. With `Cc1ccccc1C(=O)Nc1ccc(C(=O)N2CCc3cccn3-c3ccccc32)cc1` [Example 297], the IC50 in experiment [1] (setting [7]) is 270 nM. Moreover, in experiment [2], the Osmolality is on record as 796 mOsm/kg and the “Urine Volume” value was 7 ml/4 hrs. For the same compound, in experiment [3], the IC50 was determined as 4000 nM and the inhibition at 10 µM was 76%. Also, the IC50 in experiment [4] came out at 33 nM.
For the compound `Cc1cc(C(=O)N2Cc3cccn3Cc3ccccc32)cc(C)c1NC(=O)c1ccc(Cl)cc1Cl` [Example 473], the inhibition at 10 µM in experiment [1] stood at 90%; in experiment [3] it was 20%; in experiment [4] (rat), 56%. The compound further gave an Osmolality in experiment [2] of 1493 mOsm/kg. In addition, the “Urine Volume” value in experiment [2] was found to be 2.3 ml/4 hrs.
Consider `Cc1ccccc1CC(=O)Nc1ccc(C(=O)N2Cc3cccn3Cc3ccccc32)c(Cl)c1` [Example 697, N-[4-(5H-pyrrolo[2,1-c][1,4]benzodiazepin-10(11H)-ylcarbonyl)-3-chloro-phenyl]-2-methylbenzeneacetamide], for which the IC50 in experiment [5] (setting [8]) was 3 nM; in experiment [6] it was 620 nM.
On to `COc1cc(C(=O)N2Cc3cccn3Cc3ccccc32)ccc1NC(=O)c1cc(C)ccc1C` [Example 704, N-[4-(5H-pyrrolo[2,1-c][1,4]benzodiazepin-10(11H)-ylcarbonyl)-2-methoxyphenyl]-2,5-dimethylbenzamide], for which the inhibition at 1 µM in experiment [5] (1 μM, human V2) stood at 92%; in experiment [6] (1.5 h, 1 μM, human platelet) it was 100%.
As to `O=C(Nc1ccc(C(=O)N2Cc3cccn3Cc3ccccc32)cc1)c1ccc(F)cc1Cl` [Example 692, N-[4-(5H-pyrrolo[2,1-c][1,4]benzodiazepin-10(11H)-ylcarbonyl)phenyl]-2-chloro-4-fluorobenzamide], the IC50 amounted to 4 nM in experiment [5] (setting [8]) and 7 nM in experiment [6].
In the same order, the values of `CCCCC(=O)Nc1ccc(C(=O)N2Cc3cccn3Cc3ccccc32)cc1` [Example 715] are 73 nM and 7.8 nM.
On to `Cc1ccc(F)cc1C(=O)Nc1ccc(C(=O)N2CCc3cccn3-c3ccccc32)c(Cl)c1` [Example 612, N-[4-[(6,7-Dihydro-5H-pyrrolo[1,2-a]-[1,5]benzodiazepin-5-yl)carbonyl]-3-chlorophenyl]-5-fluoro-2-methyl-benzamide], for which the IC50 in experiment [5] (setting [8]) is 10 nM; in experiment [6], 1700 nM.
Turning to `CC(C)COC(=O)Nc1ccc(C(=O)N2Cc3cccn3Cc3ccccc32)cc1` [Example 714], the IC50 in experiment [5] (setting [8]) turned out to be 41 nM; in experiment [6], 23 nM.
Take `Cc1ccccc1C(=O)Nc1ccc(C(=O)N2Cc3ccc(CN(C)C)n3Cc3ccccc32)c(Cl)c1` [Example 669, N-[4-[[3-[(dimethylamino)methyl]-5H-pyrrolo[2,1-c][1,4]benzodiazepin-10(11H)-yl]carbonyl]-3-chlorophenyl]-2-methylbenzamide]: the IC50 in experiment [5] (setting [8]) was determined as 35 nM; in experiment [6], 71 nM.
Consider `COc1cc(C(=O)N2Cc3cccn3Cc3ccccc32)ccc1NC(=O)CC(C)C` [Example 716], for which the IC50 came out at 31 nM in experiment [5] (setting [8]) and 2 nM in experiment [6].
As for `Cc1ccc(C)c(C(=O)Nc2ccc(C(=O)N3Cc4cccn4Cc4ccccc43)c(Cl)c2)c1` [Example 701, N-[4-(5H-pyrrolo[2,1-c][1.4]benzodiazepin-10(11H)-ylcarbonyl)-3-chloro-phenyl]-2,5-dimethylbenzamide], in experiment [6], the IC50 is 340 nM. The compound further registered an inhibition at 1 µM in experiment [4] (1 μM, rat) of 100%.
In the case of `Cc1ccc(F)cc1C(=O)Nc1ccc(C(=O)N2Cc3cccn3Cc3ccccc32)c(C)c1` [Example 694, N-[4-(5H-pyrrolo[2,1-c][1,4]benzodiazepin-10(11H)-ylcarbonyl)-3-methylphenyl]-5-fluoro-2-methylbenzamide], the IC50 in experiment [1] was 120 nM; in experiment [5] it was 1.7 nM.
As to `O=C(Nc1ccc(C(=O)N2Cc3ccc(C(=O)C(Cl)(Cl)Cl)n3Cc3ccccc32)cc1)c1ccccc1C(F)(F)F` [Example 597], the inhibition at 10 µM came out at 100% in experiment [1], 42% in experiment [3] and 97% in experiment [4] (rat). In addition, the Osmolality in experiment [2] was found to be 1250 mOsm/kg. The “Urine Volume” value in experiment [2] is 5.3 ml/4 hrs.
With `CN(C)C(C(=O)Nc1ccc(C(=O)N2Cc3cccn3Cc3ccccc32)cc1)c1ccccc1` (stereo not drawn) [Example 586, α-(Dimethylamino)-N-[4-(5H-pyrrolo[2,1-c][1,4]benzodiazepin-10(11H)-ylcarbonyl)phenyl]benzeneacetamide], the IC50 was found to be 450 nM in experiment [1] (setting [7]), 4700 nM in experiment [3] and 230 nM in experiment [4]. The compound also yielded an Osmolality in experiment [2] of 1196 mOsm/kg. Also, the “Urine Volume” value in experiment [2] is on record as 4.3 ml/4 hrs. Also, the inhibition at 10 µM in experiment [3] worked out at 61%.
For the compound `CN(C)CCSC(C(=O)Nc1ccc(C(=O)N2Cc3cccn3Cc3ccccc32)cc1)c1ccccc1` (stereo not drawn) [Example 584, α-[[2-(Dimethylamino)ethyl]thio]-N-[4-(5H-pyrrolo[2,1-c][1,4]benzodiazepin-10(11H)-ylcarbonyl)phenyl]benzeneacetamide], the half-maximal inhibitory concentration (IC50) in experiment [1] (setting [7]) was 1200 nM. Further, in experiment [2], the Osmolality was found to be 1718 mOsm/kg and the “Urine Volume” value amounted to 2.5 ml/4 hrs. The compound further gave an inhibition at 10 µM in experiment [3] of 26%. The IC50 in experiment [4] was 480 nM.
